Assay results published in patent US4432973A, “Benzoyl- and α-hydroxybenzyl-phenyl-glycosides and application thereof in therapeutics” (Societe de Recherches Industrielles (S.O.R.I.), priority 1980, dated 1984).

Columns and labels:
[1] = test system: blood platelet aggregation; test: Spontaneous aggregation: blood platelet anti-aggregation activity; type: in vivo, rat (adult male); conditions: t=5 hours, rat; for inhibition in vivo at 100 mg/kg: ip, 100 mg/kg I.P.
Protocol: The technique used is that of Sanders described in Laboratory Animal Science 27 (No. 5), pages 757-761 (1977).
After administration at 100 mg/kg I.P. (unless specified to the contrary in Table V hereinbelow) of the product to be tested to adult male reproducing rats, two blood samples are taken, one on sodium citrate and the other on sodium citrate treated with formaldehyde at instant t=5 hours.
After centrifugation of the samples, a platelet count is made on the supernatant liquid. The spontaneous aggregation index according to Wu and Hook Stroke 6, 521-524 (1975) is expressed by the relation: [formula]

[2] = Anti-hypoxic activity: survival to hypoxia (nitrogen-oxygen 95:5); type: in vivo, mouse (Swiss male); conditions: I.P., 1/10th of LD-50 or 100 mg/kg when LD-0 ≥ 800 mg/kg; up to 15 minutes; mouse
Protocol: The experiment is carried out on batches of 20 Swiss male mice weighing from 20 to 30 g. Each product to be tested is administered to the mice by intraperitoneal route at a dose corresponding to 1/10th of the LD-50 or at a dose of 100 mg/kg when the LD-0 is higher than or equal to 800 mg/kg. The mice are placed in a nitrogen-oxygen (95:5) v/v atmosphere. The survival time of the mice is then measured up to 15 minutes maximum.
The results shown in Table VII are expressed in percentage of survival with respect to a non-treated control batch and a batch treated with an anti-hypoxic reference product [specialty known under the trade name of "Duxil" and which is constituted by a mixture of Almitrine bis-methanesulfonate and of Raubasine in the weight ratio 3:1], the anti-hypoxic reference product being administered at the dose of 18 mg/kg I.P.

[3] = Anti-ulcer activity: ulcer caused by aspirin; type: in vivo, rat (male Wistar); conditions: 100 mg/kg I.P.; aspirin 192 mg/kg per os; standardised to control batch and cimetidine (index 1)
Protocol: The experiment is carried out on male Wistar rats of 180 to 200 g. The products to be tested are administered at 100 mg/kg I.P. (unless indicated to the contrary in Table IV).
At t=0, the rats are made to fast and a first administration of the product to be tested is made.
At t=18 hours, 2 ml of an ulcer-forming suspension with 192 mg of aspirin/kg are administered per os then a second administration of the product to be tested is made.
At t=22 hours, the animals are sacrificed and the ulcers are marked as follows: small point-like ulcers: mark 1 more extensive ulcers: mark 3 highly extensive or very deep ulcers: mark 9
This marking is standardised with respect to a control batch and to cimetidine (a reference product) to which index 1 has been allocated.

[4] = Acute toxicity in the mouse by the I.P. route; type: in vivo; conditions: for LD50: read-out: DL-50 (lethal dose involving the death of half of the animals)
Source text: The acute toxicity was studied in the mouse by the I.P. route. It is expressed in the form of DL-50 (lethal dose involving the death of half of the animals) or DL-0 (maximum non-lethal dose).

[5] = Veinous thrombosis: veinous anti-thrombus activity; type: in vivo; conditions: Rattus norvegicus, ip, 100 mg/kg I.P., 4 to 5 hours after administration, read-out: Diminution of veinous thrombus
Protocol: The technique used is similar to the one described by Peterson-Zucker in Thrombo.Diath.Haemorh. 23, 1, (1970).
An occlusive thrombus is created in the […] vena cava of a rat by the combined action of an endothelial alteration and a veinous stasis for 15 mins. and 4 to 5 hours after administration of the product to be tested (100 mg/kg I.P.).

| Structure (SMILES) | inhibition in vivo at 100 mg/kg ([1]; Platelet) [%] | Survival (survival percentage to hypoxic aggression) [2] | Ulcer index [3] | DL-0 (maximum non-lethal dose) ([4]; in vivo, ip) [mg/kg IP] | inhibition in vivo at 100 mg/kg [5] [%] | other results |
| --- | --- | --- | --- | --- | --- | --- |
| O=C(c1ccc(O[C@@H]2OC[C@@H](O)[C@H](O)[C@H]2O)cc1)c1ccc([N+](=O)[O-])cc1 [Example 1, [4-(4-nitrobenzoyl)-phenyl]-β-D-xylopyranoside] | ≥ 40 | +++ (higher than or equal to 80%) | 0.56 | > 800 |  |  |
| O=C(c1ccc(Cl)cc1)c1ccc(O[C@@H]2OC[C@@H](O)[C@H](O)[C@H]2O)cc1 [Example 3] |  | +++ (higher than or equal to 80%) |  | > 800 | 30 to 49 |  |
| Nc1ccc(C(=O)c2ccc(O[C@@H]3OC[C@@H](O)[C@H](O)[C@H]3O)cc2)cc1 [Example 8] | ≥ 40 | +++ (higher than or equal to 80%) | 0.25 | > 800 | ≥ 50 |  |
| Cc1ccc(C(=O)c2ccc(O[C@@H]3OC[C@@H](O)[C@H](O)[C@H]3O)cc2)cc1 [Example 12] | 25 to 39 | ++ (from 50 to 79%) | 0.26 | > 800 |  |  |
| Cc1ccccc1C(=O)c1ccc(O[C@@H]2OC[C@@H](O)[C@H](O)[C@H]2O)cc1 [Example 14] |  |  |  |  | ≥ 50 | inhibition in vivo at 75 mg/kg ([1]; Platelet, 75 mg/kg IP): ≥ 40%; LD50 ([4]; in vivo, ip, I.P.): 740 mg/kg |
| Cc1ccccc1C(=O)c1cc(C)c(O[C@@H]2OC[C@@H](O)[C@H](O)[C@H]2O)c(C)c1 [Example 21] | ≥ 40 |  | 0.16 |  |  | LD50 ([4]; in vivo, ip, I.P.): 600 mg/kg |
| COc1ccc(C(=O)c2cccc(O[C@@H]3OC[C@@H](O)[C@H](O)[C@H]3O)c2)cc1 [Example 54] | ≥ 40 |  | 0.57 |  | 30 to 49 | DL-0 (maximum non-lethal dose) ([4]; I.P.): > 800 mg/kg IP |
| CC(=O)N[C@H]1[C@H](Oc2ccc(C(=O)c3ccc(Cl)cc3)cc2)O[C@H](COS(=O)(=O)O)[C@@H](OS(=O)(=O)O)[C@@H]1OS(=O)(=O)O [Example 67, [4-(4-chlorobenzoyl)-phenyl]-3,4,6-tri-(ammonium-sulfate)-2-N-acetyl-β-D-glucosaminide] | 25 to 39 |  | 0.81 |  | 30 to 49 | DL-0 (maximum non-lethal dose) ([4]; I.P.): > 800 mg/kg IP |
| CC(=O)O[C@@H]1[C@@H](OC(C)=O)[C@H](Oc2ccc(C(=O)c3ccc(C)cc3)cc2)OC[C@H]1OC(C)=O [Example 76] |  | ++ (from 50 to 79%) | 0.38 | > 800 | 30 to 49 |  |
| COc1cc(C(=O)c2ccc(O[C@@H]3OC[C@@H](OC(C)=O)[C@H](OC(C)=O)[C@H]3OC(C)=O)cc2)cc(OC)c1OC [Example 79] | ≥ 40 |  |  |  |  | DL-0 (maximum non-lethal dose) ([4]; I.P.): > 800 mg/kg IP |
| Cc1cc(C(=O)c2ccccc2C)ccc1O[C@@H]1OC[C@@H](O)[C@H](O)[C@H]1O [Example 85] |  | + (from 30 to 49%) |  |  | ≥ 50 | LD50 ([4]; in vivo, ip, I.P.): > 550 mg/kg |
| OC(c1ccc(O[C@@H]2OC[C@@H](O)[C@H](O)[C@H]2O)cc1)c1ccccc1Cl (stereo partly drawn) [Example 88] |  |  | 0.39 |  | ≥ 50 | DL-0 (maximum non-lethal dose) ([4]; I.P.): > 800 mg/kg IP |
| Cc1ccccc1C(O)c1ccc(O[C@@H]2OC[C@@H](O)[C@H](O)[C@H]2O)cc1 (stereo partly drawn) [Example 89] |  |  | 0.88 |  | ≥ 50 | DL-0 (maximum non-lethal dose) ([4]; I.P.): > 800 mg/kg IP |
| OC(c1ccc(Cl)cc1)c1ccc(O[C@@H]2OC[C@@H](O)[C@H](O)[C@H]2O)cc1 (stereo partly drawn) [Example 91] |  | +++ (higher than or equal to 80%) | 0.72 | > 800 | 30 to 49 |  |
| OC(c1ccc(Cl)cc1)c1ccc(O[C@@H]2OC[C@@H](O)[C@H](O)[C@H]2O)cc1 (stereo partly drawn) [Example 94] |  | + (from 30 to 49%) |  |  |  | Inhibition of platelet aggregation ([1]; 33 mg/kg IP): + (inhibition of 25 to 39%); DL-50 (lethal dose involving the death of half of the animals) ([4]; I.P.): 330 mg/kg IP |
| O=[N+]([O-])c1ccc(C(O)c2ccc(O[C@@H]3OC[C@@H](O)[C@H](O)[C@H]3O)cc2)cc1 (stereo partly drawn) [Example 97, [4-(4-nitro-α-hydroxybenzyl)-phenyl]-β-D-xylopyranoside] | ≥ 40 |  | 0.52 |  | ≥ 50 | LD50 ([4]; in vivo, ip, I.P.): > 1000 mg/kg |
| O=[N+]([O-])c1ccccc1C(O)c1ccc(O[C@@H]2OC[C@@H](O)[C@H](O)[C@H]2O)cc1 (stereo partly drawn) [Example 101] |  | + (from 30 to 49%) | 0.56 | > 800 | ≥ 50 |  |
| CC(=O)O[C@@H]1[C@@H](OC(C)=O)[C@H](Oc2ccc(C(=O)c3ccc([N+](=O)[O-])cc3)cc2C)OC[C@H]1OC(C)=O [Example 104] | ≥ 40 | ++ (from 50 to 79%) | 0.84 | > 800 |  |  |
| Cc1cc(C(O)c2ccccc2C)ccc1O[C@@H]1OC[C@@H](O)[C@H](O)[C@H]1O (stereo partly drawn) [Example 105] |  |  |  |  |  | inhibition in vivo at 45 mg/kg ([1]; Platelet, 45 mg/kg IP): 25 to 39%; LD50 ([4]; in vivo, ip, I.P.): 450 mg/kg |
| CC(=O)O[C@@H]1[C@@H](OC(C)=O)[C@H](Oc2ccc(C(=O)c3cccc(C(F)(F)F)c3)cc2)OC[C@H]1OC(C)=O [Example 108] |  | + (from 30 to 49%) | 0.30 | > 800 | 30 to 49 |  |
| CC(=O)O[C@@H]1[C@@H](OC(C)=O)[C@H](Oc2c(C)cc(C(=O)c3ccccc3Cl)cc2C)OC[C@H]1OC(C)=O [Example 113] |  | +++ (higher than or equal to 80%) |  |  |  | inhibition in vivo at 63 mg/kg ([1]; Platelet, 63 mg/kg IP): ≥ 40%; LD50 ([4]; in vivo, ip, I.P.): 630 mg/kg |
| CC(=O)O[C@@H]1[C@@H](OC(C)=O)[C@H](Oc2c(C)cc(C(=O)c3ccc(Cl)cc3)cc2C)OC[C@H]1OC(C)=O [Example 114] | 25 to 39 | ++ (from 50 to 79%) |  | > 800 |  |  |
| CC(=O)N[C@H]1[C@H](Oc2ccc(C(=O)c3ccc(C(F)(F)F)cc3)cc2)O[C@H](CO)[C@@H](O)[C@@H]1O [Example 118] | 25 to 39 | ++ (from 50 to 79%) | 0.53 | > 800 |  |  |
| CC(=O)N[C@H]1[C@H](Oc2c(C)cc(C(=O)c3ccc([N+](=O)[O-])cc3)cc2C)O[C@H](CO)[C@@H](O)[C@@H]1O [Example 119] |  | +++ (higher than or equal to 80%) | 0.47 | > 800 | ≥ 50 |  |
| CC(=O)N[C@H]1[C@H](Oc2ccc(C(O)c3ccc([N+](=O)[O-])cc3)cc2)O[C@H](CO)[C@@H](O)[C@@H]1O (stereo partly drawn) [Example 123] |  | ++ (from 50 to 79%) |  | > 800 | 30 to 49 |  |
| O=C(c1ccc(O[C@@H]2OC[C@@H](O)[C@H](O)[C@H]2O)cc1)c1ccccc1O [Example 125] |  | + (from 30 to 49%) |  |  | 30 to 49 | LD50 ([4]; in vivo, ip, I.P.): 1700 mg/kg |
| OC[C@H]1O[C@@H](Oc2ccc(C(O)c3ccc(Cl)cc3)cc2)[C@H](O)[C@@H](O)[C@@H]1O (stereo partly drawn) [Example 131] |  | ++ (from 50 to 79%) |  |  | 30 to 49 | LD50 ([4]; in vivo, ip, I.P.): 730 mg/kg |
